Measurements taken from patent publication US20250215039A1, “NUCLEOSIDES FOR TREATING CANCER” (PRIMEFOUR THERAPEUTICS, INC., priority 2022, published 2025).
Like-named read-outs stand apart in the source and are kept apart here.

System: cancer cell lines
Assay: Cancer cell proliferation activity (CellTiterGlo, 72 h)
Assay type: cell-based
Settings: 72 h, 72 h, read-out: IC50
Outline: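 Readout is CellTiterGlo luminescence after 72 h compound exposure (0.1% DMSO final), started one day post-seeding, at 37 °C.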

- IC50 (5637 cell line (bladder)): 1 µM
- IC50 (CLS439 cell line (bladder)): > 50 µM
- IC50 (HS729 cell line (muscle)): 1.36 µM
- IC50 (HSS78T cell line): 0.82 µM
- IC50 (JAR cell line (placenta)): 0.46 µM
- IC50 (SKMELS cell line): > 50 µM
- IC50 (Homo sapiens, 22Rv1, 72 h, 22RV1 cell line (prostate)): 1.57 µM
- IC50 (Homo sapiens, 786-0, 72 h, 786O cell line (kidney)): 0.52 µM
- IC50 (Homo sapiens, A204, 72 h, A204 cell line (muscle)): 0.29 µM
- IC50 (Homo sapiens, A549, 72 h, A549 cell line): > 50 µM
- IC50 (Homo sapiens, A673, 72 h, A673 cell line (bone)): 2.31 µM
- IC50 (Homo sapiens, A2780, 72 h, A2780 cell line (ovary)): 1.26 µM
- IC50 (Homo sapiens, A-375, 72 h, A375 cell line (skin)): 0.26 µM
- IC50 (Homo sapiens, A-431, 72 h, A431 cell line (skin)): 0.34 µM
- IC50 (Homo sapiens, ACHN, ACHN cell line (kidney)): 3.3 µM
- IC50 (Homo sapiens, ASPC1, 72 h, ASPC1 cell line (pancreas)): 0.42 µM
- IC50 (Homo sapiens, BT-20, 72 h, BT20 cell line (breast)): 0.52 µM
- IC50 (Homo sapiens, BXPC-3, 72 h, BXPC3 cell line (pancreas)): > 50 µM
- IC50 (Homo sapiens, C-33-A, C33A cell line (cervical)): 1.79 µM
- IC50 (Homo sapiens, CAKI-1, 72 h, CAKI1 cell line (kidney)): 0.03 µM
- IC50 (Homo sapiens, COLO 205, 72 h, COLO205 cell line (colon)): 1.3 µM
- IC50 (Homo sapiens, COLO-678, 72 h, COLO678 cell line (colon)): 5.81 µM
- IC50 (Homo sapiens, Ca-Ski, CASKI cell line (cervical)): 0.26 µM
- IC50 (Homo sapiens, Caco-2, 72 h, CACO2 cell line (colon)): 0.72 µM
- IC50 (Homo sapiens, Calu-6, 72 h, CALU6 cell line (lung)): 0.61 µM
- IC50 (Homo sapiens, DLD-1, 72 h, DLD1 cell line (colon)): 1.98 µM
- IC50 (Homo sapiens, DU-145, 72 h, DU145 cell line (prostate)): 0.12 µM
- IC50 (Homo sapiens, EFO-21, 72 h, EFO21 cell line (ovary)): 0.57 µM
- IC50 (Homo sapiens, EJ-28, 72 h, EJ28 cell line (bladder)): 0.56 µM
- IC50 (Homo sapiens, Granta-519, 72 h, GRANTA-519 cell line (hematological)): 1.03 µM
- IC50 (Homo sapiens, HCT-15, 72 h, HCT15 cell line (colon)): 1.81 µM
- IC50 (Homo sapiens, HCT-116, 72 h, HCT116 cell line (colon)): 0.93 µM
- IC50 (Homo sapiens, HEK293, 72 h, HEK293 cell line (kidney)): 0.74 µM
- IC50 (Homo sapiens, HL-60, 72 h, HL-60 cell line (hematological)): 0.52 µM
- IC50 (Homo sapiens, HT-29, 72 h, HT29 cell line (colon)): 0.42 µM
- IC50 (Homo sapiens, HT-1080, 72 h, HT1080 cell line (connective tissue)): > 50 µM
- IC50 (Homo sapiens, HeLa, HELA cell line (cervical)): 0.55 µM
- IC50 (Homo sapiens, HepG2, 72 h, HEPG2 cell line (liver)): 0.79 µM
- IC50 (Homo sapiens, IGROV-1, 72 h, IGROV1 cell line (ovary)): 0.43 µM
- IC50 (Homo sapiens, IMR-90, 72 h, IMR.90 cell line): 0.91 µM
- IC50 (Homo sapiens, J82, 72 h, J82 cell line (bladder)): 0.54 µM
- IC50 (Homo sapiens, JEG-3, 72 h, JEG3 cell line (placenta)): 0.37 µM
- IC50 (Homo sapiens, JIMT-1, 72 h, JIMT1 cell line (breast)): 0.07 µM
- IC50 (Homo sapiens, K562, 72 h, K-562 cell line (hematological)): > 50 µM
- IC50 (Homo sapiens, Kasumi 1, 72 h, KASUMI-1 cell line (hematological)): 0.06 µM
- IC50 (Homo sapiens, L-363, 72 h, L-363 cell line (hematological)): 0.69 µM
- IC50 (Homo sapiens, LoVo, LOVO cell line (colon)): 0.26 µM
- IC50 (Homo sapiens, MCF7, 72 h, MCF7 cell line (breast)): > 50 µM
- IC50 (Homo sapiens, MDA-MB-231, 72 h, MDAMB231 cell line (breast)): 2.69 µM
- IC50 (Homo sapiens, MDA-MB-435, 72 h, MDAMB435 cell line (skin)): 1.25 µM
- IC50 (Homo sapiens, MDA-MB-436, 72 h, MDAMB436 cell line (breast)): 0.25 µM
- IC50 (Homo sapiens, MDA-MB-468, 72 h, MDAMB468 cell line (breast)): 0.79 µM
- IC50 (Homo sapiens, MG-63, 72 h, MG63 cell line (bone)): > 50 µM
- IC50 (Homo sapiens, MHH-ES-1, 72 h, MHHES1 cell line (bone)): 0.86 µM
- IC50 (Homo sapiens, MIA PaCa-2, 72 h, MIAPACA2 cell line (pancreas)): > 50 µM
- IC50 (Homo sapiens, MINO, MINO cell line (hematological)): 0.12 µM
- IC50 (Homo sapiens, MV4-11, 72 h, MV4-11 cell line (hematological)): 0.07 µM
- IC50 (Homo sapiens, NCI-H23, 72 h, NCI-H23 cell line (lung)): 0.48 µM
- IC50 (Homo sapiens, NCI-H82, 72 h, NCIH82 cell line (lung)): 0.61 µM
- IC50 (Homo sapiens, NCI-H292, 72 h, NCIH292 cell line (lung)): 5.31 µM
- IC50 (Homo sapiens, NCI-H460, 72 h, NCIH460 cell line (lung)): 0.62 µM
- IC50 (Homo sapiens, OVCAR-3, 72 h, OVCAR3 cell line (ovary)): 0.14 µM
- IC50 (Homo sapiens, OVCAR-4, 72 h, OVCAR4 cell line (ovary)): 0.74 µM
- IC50 (Homo sapiens, PANC-1, 72 h, PANC1 cell line (pancreas)): > 50 µM
- IC50 (Homo sapiens, PC-3, 72 h, PC3 cell line (prostate)): 1.09 µM
- IC50 (Homo sapiens, PLC-PRF-5, 72 h, PLCPRF5 cell line (liver)): 2.16 µM
- IC50 (Homo sapiens, Panc1005, 72 h, PANC1005 cell line (pancreas)): 0.24 µM
- IC50 (Homo sapiens, RD, RD cell line (muscle)): 2.32 µM
- IC50 (Homo sapiens, Ramos, RAMOS cell line (hematological)): 0.56 µM
- IC50 (Homo sapiens, SAOS-2, 72 h, SAOS2 cell line (bone)): 0.27 µM
- IC50 (Homo sapiens, SF-268, 72 h, SF268 cell line (brain)): > 50 µM
- IC50 (Homo sapiens, SF-295, 72 h, SF295 cell line (brain)): 1.94 µM
- IC50 (Homo sapiens, SK-BR-3, 72 h, SKBR3 cell line (breast)): 0.1 µM
- IC50 (Homo sapiens, SK-HEP1, 72 h, SKHEP1 cell line (liver)): 4.78 µM
- IC50 (Homo sapiens, SK-LMS-1, 72 h, SKLMS1 cell line (uterus)): 0.6 µM
- IC50 (Homo sapiens, SK-MEL-28, 72 h, SKMEL28 cell line (skin)): 1.18 µM
- IC50 (Homo sapiens, SK-N-AS, SKNAS cell line (brain)): 0.78 µM
- IC50 (Homo sapiens, SK-N-SH, SKNSH cell line (brain)): 0.64 µM
- IC50 (Homo sapiens, SK-OV-3, 72 h, SKOV3 cell line (ovary)): 1.03 µM
- IC50 (Homo sapiens, SNB-75, 72 h, SNB75 cell line (brain)): 2.6 µM
- IC50 (Homo sapiens, SU-DHL10, 72 h, SU-DHL-10 cell line (hematological)): 0.46 µM
- IC50 (Homo sapiens, SU-DHL-6, 72 h, SU-DHL-6 cell line (hematological)): 0.36 µM
- IC50 (Homo sapiens, SW-620, 72 h, SW620 cell line (colon)): 0.57 µM
- IC50 (Homo sapiens, T-24, 72 h, T24 cell line (bladder)): 0.92 µM
- IC50 (Homo sapiens, TE-671, 72 h, TE671 cell line (muscle)): 3.14 µM
- IC50 (Homo sapiens, THP-1, 72 h, THP-1 cell line (hematological)): 0.11 µM
- IC50 (Homo sapiens, U2OS, U2OS cell line (bone)): 1.12 µM
- IC50 (Homo sapiens, U-87 MG, U87MG cell line (brain)): 5.62 µM
- IC50 (Homo sapiens, UMUC3, 72 h, UMUC3 cell line (bladder)): > 50 µM
- IC50 (Homo sapiens, UO-31, 72 h, UO31 cell line (kidney)): 0.3 µM
- IC50 (Homo sapiens, WSU-NHL, WSU-NHL cell line (hematological)): 0.56 µM
- IC50 (MT-3, 72 h, MT3 cell line (breast)): 0.5 µM
- IC50 (NCI-H358M, NCIH358M cell line (lung)): 0.3 µM
- IC50 (PBMC, PBMC (hematological)): 1.99 µM
- IC50 (RD-ES, RDES cell line (bone)): 0.37 µM
SMILES: C[C@]1(CO)O[C@@H](n2cnc3c(N)nc(F)nc32)C[C@@H]1O [Cpd. No. 126, (2R,3S,5R)-5-(6-amino-2-fluoro-9H-purin-9-yl)-2-(hydroxymethyl)-2-methyltetrahydrofuran-3-ol]
